Measurements: US11319289B2, “5-hydroxy pyridine-based compound for use as P2X1 and P2X3 receptor antagonist and pharmaceutical composition comprising same” (GWANGJU INSTITUTE OF SCIENCE AND TECHNOLOGY, priority 2017, dated 2022)

What was measured:
Assay type in all cases: cell-based
[1] = target: T1, human P2X7 receptor (hP2X7) (Homo sapiens, UniProt Q99572); experiment: Ethidium bromide accumulation assay in hP2X7-expressing HEK293 cells; conditions: 10 μM compound with BzATP
T1 construct: expressed in transfected cells
T1 sequence (Q99572 1-595): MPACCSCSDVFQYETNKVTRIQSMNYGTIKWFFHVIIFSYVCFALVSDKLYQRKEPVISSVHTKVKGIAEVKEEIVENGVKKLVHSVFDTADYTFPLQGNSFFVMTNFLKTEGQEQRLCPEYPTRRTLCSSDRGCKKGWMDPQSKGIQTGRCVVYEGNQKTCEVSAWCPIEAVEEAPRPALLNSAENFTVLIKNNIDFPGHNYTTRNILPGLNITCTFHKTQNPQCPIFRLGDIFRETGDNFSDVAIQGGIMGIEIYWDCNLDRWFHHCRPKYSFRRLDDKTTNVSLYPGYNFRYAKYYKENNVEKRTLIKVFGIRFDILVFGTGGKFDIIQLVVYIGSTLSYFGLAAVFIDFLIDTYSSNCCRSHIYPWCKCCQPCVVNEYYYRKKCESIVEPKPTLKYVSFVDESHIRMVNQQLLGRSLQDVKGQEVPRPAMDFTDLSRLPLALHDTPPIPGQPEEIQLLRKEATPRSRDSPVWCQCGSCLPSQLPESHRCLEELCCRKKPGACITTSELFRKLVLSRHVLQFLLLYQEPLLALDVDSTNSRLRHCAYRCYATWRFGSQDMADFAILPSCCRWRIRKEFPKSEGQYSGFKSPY
Protocol: 1-2. Ethidium Bromide Accumulation Assay in hP2X-Expressing HEK293 Cells
HEK293 cells that are stably transfected with the human P2X7 receptor (P2X7R) were kept under a humidified atmosphere of 5% CO2 at 37° C. in DMEM supplemented with 10% (v/v) FBS, 2 mM L-glutamine and antibiotics (50 U/mL penicillin and 50 μg/ml streptomycin). BzATP-induced pore formation was measured using a fluorescence plate reader by measuring cellular absorption of ethidium in the hP2X7-expressing HEK293 cells. The hP2X7-expressing HEK293 cells were washed once with an appropriate assay buffer, and the buffer was also removed before subsequent analysis. All studies were performed at room temperature and the final assay volume was 100 μL. The cells were resuspended at 2.5×10^6 cells/mL in assay buffers consisting of 10 mM HEPES, 5 mM N-methyl-D-glucamine, 5.6 mM KCl, 10 mM D-glucose and 0.5 mM CaCl2 (pH 7.4) and supplemented with 280 mM sucrose or 140 mM NaCl.
In order to determine the antagonistic activity of the 5-hydroxyl-pyridine derivatives of the present invention and the reference compound (AZD9056), these compounds were added to the cells at a concentration of 10 μM with BzATP without pre-incubation. The cells were incubated for 2 hours under a humidified atmosphere of 5% CO2 at 37° C., and the absorption of ethidium dye was observed by measuring fluorescence with a Bio-Tek instrument FL600 fluorescent plate reader (excitation wavelength of 530 nm and emission wavelength of 590 nm). The results are expressed as a percentage relative to the maximum cumulative amount of ethidium bromide when stimulated with BzATP alone.
(§1) In order to investigate the structure-activity relationship (SAR) of the compounds synthesized in the present invention, the antagonistic activity was evaluated by a two-electrode voltage clamp (TEVC) assay in Xenopus oocytes expressing the recombinant mP2X1 or hP2X3, respectively. The hP2X7R antagonistic activity was assessed using an ethidium ion accumulation assay in human HEK293 cells stably expressing the recombinant human P2X7R.

[2] = target: T2, mouse P2X1 receptor (mP2X1) (Mus musculus, UniProt P51576); experiment: Two-electrode voltage clamp assay, recombinant mP2X1 receptor in Xenopus oocytes; conditions: 10 μM compound, 2 μM ATP, mean±SEM n≥3 (footnote c); for inhibition at 10 µM: read-out: mP2X1 % inhibitory effect at 10 μM
T2 construct: expressed in transfected cells; host or cells: Xenopus oocytes (cRNA microinjection)
T2 sequence (P51576 1-399): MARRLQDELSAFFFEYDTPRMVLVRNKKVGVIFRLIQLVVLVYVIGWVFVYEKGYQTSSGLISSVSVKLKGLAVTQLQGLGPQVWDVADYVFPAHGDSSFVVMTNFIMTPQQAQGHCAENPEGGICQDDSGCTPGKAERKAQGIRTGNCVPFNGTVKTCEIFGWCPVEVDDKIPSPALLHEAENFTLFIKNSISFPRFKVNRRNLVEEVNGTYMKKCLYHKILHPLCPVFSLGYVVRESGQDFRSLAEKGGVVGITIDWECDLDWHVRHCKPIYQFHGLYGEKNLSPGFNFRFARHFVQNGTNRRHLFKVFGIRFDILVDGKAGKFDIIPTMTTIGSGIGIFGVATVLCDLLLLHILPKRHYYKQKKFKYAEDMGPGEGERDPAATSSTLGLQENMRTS
Protocol: (§2) 1-1. Two-Electrode Voltage Clamp Assay for Recombinant mP2X1 and hP2X3 Receptors
(§3) Xenopus oocytes were isolated and incubated with 270 U/mg of collagenase at 23 to 24° C. for 1.5 hours. Defolliculated oocytes were kept in Barth's solution at 18° C. After 1 day, the defolliculated oocytes were each microinjected cytosolically with mP2X1 and human P2X3 receptor cRNA ([…], 1 μg/mL), incubated for 24 hours at 18° C. in Barth's solution. The cRNA-injected oocytes were kept for 12 days at 4° C. ATP-activated membrane currents (Vh=−70 mV) were recorded from the cRNA-injected oocytes using the two-electrode voltage clamp technique (Axoclamp 2B amplifier). Voltage recording ([…] tip resistance) and current-recording microelectrodes (5 MΩ tip resistance) were filled with 3.0 M KCl. Oocytes were placed in an electrophysiological chamber continuously superfused with Ringer's solution (5 mL/min, at 18° C.) containing 110 mM NaCl, 2.5 mM KCl, 5 mM HEPES and 1.8 mM BaCl2, with pH adjusted to 7.5. To induce an evoked current, 2 μM ATP was superfused for 60 to 120 seconds and then washed for 20 min. For data analysis, the ATP-evoked current was normalized at pH 7.5. The compounds were introduced to the fixed oocytes 20 minutes prior to ATP exposure in the electrophysiological chamber. IC50 values (the concentration of the compound required to inhibit the ATP response by 50%) were determined by Hill plots designed using the Chemical Formula: log(I/Imax−1), where I is the current evoked by ATP in the presence of an antagonist. Data are presented as mean±SEM (n≥3) from different batches of oocytes.
as §1

[3] = target: T3, human P2X3 receptor (hP2X3) (Homo sapiens, UniProt P56373); experiment: Two-electrode voltage clamp assay, recombinant hP2X3 receptor in Xenopus oocytes; conditions: Xenopus oocytes; for IC50: 2 μM ATP-evoked current, mean±SEM n≥3 (footnote d); for inhibition at 1 µM: 1 μM compound, 2 μM ATP, mean±SEM n≥3 (footnote b), read-out: hP2X3 % inhibitory effect at 1 μM
T3 construct: expressed in transfected cells; host or cells: Xenopus oocytes (cRNA microinjection)
T3 sequence (P56373 1-397): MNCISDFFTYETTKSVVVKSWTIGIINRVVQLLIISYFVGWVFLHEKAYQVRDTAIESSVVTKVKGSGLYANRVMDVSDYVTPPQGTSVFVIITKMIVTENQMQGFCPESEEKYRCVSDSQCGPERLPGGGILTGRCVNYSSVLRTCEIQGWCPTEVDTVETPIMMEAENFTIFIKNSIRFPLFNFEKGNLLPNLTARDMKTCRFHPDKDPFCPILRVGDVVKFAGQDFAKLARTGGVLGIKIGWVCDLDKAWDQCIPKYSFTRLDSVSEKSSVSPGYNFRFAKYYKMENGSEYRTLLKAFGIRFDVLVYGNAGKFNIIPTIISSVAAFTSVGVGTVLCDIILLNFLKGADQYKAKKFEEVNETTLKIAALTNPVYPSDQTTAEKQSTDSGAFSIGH
Protocol: as §2, §3, §1

Row | Structure (SMILES) | hP2X7 % inhibition of ethidium bromide accumulation [1] | inhibition at 10 µM [2] | IC50 [3] | mP2X1 % inhibitory effect at 10 μM [2] | inhibition at 1 µM [3]
1 | CCc1nc(CCc2ccc(OC)cc2)c(C(=O)O)c(C(=O)O)c1O [Compound 13c, 6-Ethyl-5-hydroxy-2-(4-methoxyphenethyl)pyridine-3,4-dicarboxylic acid] | inactive | 48.1 ± 8.8% | 550 ± 93 nM | – | –
2 | COc1ccc(CCc2nc(C)c(O)c(C#N)c2C(=O)O)cc1 [Compound 16, 4-Cyano-5-hydroxy-2-(4-methoxyphenethyl)-6-methylnicotinic acid] | Inactive | – | – | Inactive^c | 33.3%
3 | COc1ccc(CCc2nc(C)c(O)c(-c3nnn[nH]3)c2C(=O)O)cc1 [Compound 17, 5-Hydroxy-2-(4-methoxyphenethyl)-6-methyl-4-(1H-tetrazol-5-yl)nicotinic acid] | inactive | – | – | Inactive^c | 27.3 ± 1.8%
4 | CCCc1nc(Cc2cccc(Oc3ccccc3)c2)c(C)c(C#N)c1O [Compound 38, 3-Hydroxy-5-methyl-6-(3-phenoxybenzyl)-2-propylisonicotinonitrile] | inactive | – | – | inactive^c | < 50%
5 | COc1ccc(CCc2nc(C)c(O)c3c(=O)[nH][nH]c(=O)c23)cc1 [Compound 19, 8-Hydroxy-5-(4-methoxyphenethyl)-7-methyl-2,3-dihydropyrido[3,4-d]pyridazine-1,4-dione] | inactive | – | – | Inactive^c | 16.3%
6 | CCCc1nc(Cc2cccc(Oc3ccccc3)c2)c(C)c(CNS(C)(=O)=O)c1O [Compound 43, N-((3-Hydroxy-5-methyl-6-(3-phenoxybenzyl)-2-propylpyridin-4-yl)methyl)methanesulfonamide] | inactive | 43.1 ± 12.9% | – | – | < 50%
7 | COc1ccc(CCc2nc(CCS(C)(=O)=O)c(O)c(C(=O)O)c2C(=O)O)cc1 [Compound 13l, 5-Hydroxy-2-(4-methoxyphenethyl)-6-(2-(methylsulfonyl)ethyl)pyridine-3,4-dicarboxylic acid] | Inactive | – | 721 ± 96 nM | Inactive^c | –
8 | CCCc1nc(CCc2ccc(OC)cc2)c(C)c(C(N)=O)c1O [Compound 23, 5-Hydroxy-2-[2-(4-methoxyphenyl)ethyl]-3-methyl-6-propyl-pyridine-4-carboxamide] | inactive | – | 709 nM | Inactive^c | –
9 | COc1ccc(CCc2cc(C(=O)O)c(O)c(C)n2)cc1 [Compound 22a, 3-Hydroxy-6-(4-methoxyphenethyl)-2-methylisonicotinic acid] | Inactive | – | 681 ± 98 nM | Inactive^c | –
10 | COc1ccc(CCc2cc(S(C)(=O)=O)c(O)c(C)n2)cc1 [Compound 20, 6-(4-Methoxyphenethyl)-2-methyl-4-(methylsulfonyl)pyridin-3-ol] | inactive | – | – | inactive^c | 20.4%
11 | COc1ccc(CCc2nc(C)c(O)c3c2C(=O)OC3=O)cc1 [Compound 18, 7-Hydroxy-4-(4-methoxyphenethyl)-6-methylfuro[3,4-c]pyridine-1,3-dione] | inactive | 25.3% | – | – | 27.8%
12 | CCCc1nc(Cc2cccc(Oc3ccccc3)c2)c(C)c(/C=C/C(=O)O)c1O [Compound 35, (E)-3-(3-Hydroxy-5-methyl-6-(3-phenoxybenzyl)-2-propylpyridin-4-yl)acrylic acid] | inactive | – | – | Inactive^c | < 50%
13 | COc1ccc(CCc2nc(CCSC)c(O)c(C(=O)O)c2C(=O)O)cc1 [Compound 13k, 5-Hydroxy-2-(4-methoxyphenethyl)-6-(2-(methylthio)ethyl)pyridine-3,4-dicarboxylic acid] | inactive | – | 287 ± 87 nM | Inactive^c | –
14 | CCCc1nc(Cc2cccc(Oc3ccccc3)c2)c(C(=O)O)c(C(=O)O)c1O [Compound 27, 5-Hydroxy-2-(3-phenoxybenzyl)-6-propylpyridine-3,4-dicarboxylic acid] | Inactive | 27.5 ± 4.5% | 301 nM | – | –
15 | COc1ccc(CCc2nc(C(C)C)c(O)c(C(=O)O)c2C(=O)O)cc1 [Compound 13f, 5-Hydroxy-6-isopropyl-2-(4-methoxyphenethyl)pyridine-3,4-dicarboxylic acid] | inactive | 37.3 ± 8.2% | 466 nM | – | –
